pIC50: −log10 of the molar value.
Experiments:
[1] = target: T1, mouse CD38 (Mus musculus, UniProt P56528); experiment: NAD+ cyclase activity assay with mouse recombinant CD38 protein (ε-NAD fluorescence); assay type: biochemical; conditions: 0.6 nM mouse CD38, substrate ε-NAD, 30 min preincubation, fluorescence 300/410 nm
T1 construct: purchased Bio-Techne GmbH 4947-AC
T1 sequence (P56528 1-304): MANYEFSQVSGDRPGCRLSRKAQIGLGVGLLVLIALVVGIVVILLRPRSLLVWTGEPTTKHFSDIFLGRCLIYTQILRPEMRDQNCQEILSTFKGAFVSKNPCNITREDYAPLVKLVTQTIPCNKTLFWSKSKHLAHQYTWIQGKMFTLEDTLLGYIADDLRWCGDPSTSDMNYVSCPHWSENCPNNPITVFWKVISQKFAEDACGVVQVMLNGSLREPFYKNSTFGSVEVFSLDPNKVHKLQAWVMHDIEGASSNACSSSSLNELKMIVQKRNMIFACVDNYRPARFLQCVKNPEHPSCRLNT
Description: (§1) Example 4: NAD^+ Cydase Activity Assay with Human or Mouse Recombinant CD38 Protein
(§2) The following assay was used to determine the ability of compounds of the invention to inhibit the hydrolysis of NAD^+ by the human or mouse enzyme, CD38.
(§3) Reaction buffer: 40 mM HEPES/NaOH pH 7.5, 250 mM sucrose, 0.01% Tween
(§4) Final concentrations: 0.6 nM mouse CD38 (4947-AC, Bio-Techne GmbH) 1.9 nM human CD38 (AVI2404, Bio-Techne GmbH)
(§5) Substrate: […] Nicotinamide 1,N6-ethenoadenine dinucleotide (&-NAD)
(§6) Read-out: Fluorescence intensity (extinction 300 nm/emission 410 nm)
(§7) Required reaction buffer, required CD38 concentration in reaction buffer and required e-NAD concentration in reaction buffer were prepared. Thereafter, 8 μL of CD38 in reaction buffer was added to High Control and compound concentration wells in 384 well plate (Corning #4514, 384 well, nonbinding surface, low volume, round bottom) and 8 μL of reaction buffer to Low Control. Compound dilutions were transferred via pintool technology that transfers 42.5 nL compound dilutions (12-point dose-response with factor three dilutions in 100% DMSO) well-to-well. Plate was subsequently shaken for 15 s at 1450 rpm and sealed for incubation for 30 min at room temperature. Thereafter, 2 μL of e-NAD in reaction buffer were added with Integra Voyager. After shaking for 15 s at 1450 rpm, plate was sealed, and assay signal were measured continuously with PHERAstar® fluorescence intensity module (extinction 300 nm/emission 410 nm).
(§8) Dose-response curves were constructed using twelve-pointfactor three dilutions in triplicates per plate. High control (full enzyme activity) was set to assay signal of CD38 and e-NAD in presence of vehicle (DMSO) and Low control (full enzyme inhibition) was set to assay signal of e-NAD and vehicle (DMSO) in absence of CD38. For data analysis, fluorescent signal of traces corresponding to each compound concentration and High and Low control were monitored over time. Each run, High Control (full enzyme activity) was fitted to Linear equation via GraphPad Prism to determine CD38 activity from the slope and determine the time interval of linear phase of reaction to account for minor fluctuations. Thereafter, slopes of all compound concentrations were determined via fitting to same linear equation (GraphPad Prism) over the same time interval as determined for High control. […] Unless otherwise stated, fitting of curves were fixed to 100%-inhibition and unlocked for 0%-inhibition.

[2] = target: T2, human CD38 (Homo sapiens, UniProt P28907); experiment: NAD+ cyclase activity assay with human recombinant CD38 protein (ε-NAD fluorescence); assay type: biochemical; conditions: 1.9 nM human CD38, substrate ε-NAD, 30 min preincubation, fluorescence 300/410 nm
T2 construct: purchased Bio-Techne GmbH AVI2404
T2 sequence (P28907 1-300): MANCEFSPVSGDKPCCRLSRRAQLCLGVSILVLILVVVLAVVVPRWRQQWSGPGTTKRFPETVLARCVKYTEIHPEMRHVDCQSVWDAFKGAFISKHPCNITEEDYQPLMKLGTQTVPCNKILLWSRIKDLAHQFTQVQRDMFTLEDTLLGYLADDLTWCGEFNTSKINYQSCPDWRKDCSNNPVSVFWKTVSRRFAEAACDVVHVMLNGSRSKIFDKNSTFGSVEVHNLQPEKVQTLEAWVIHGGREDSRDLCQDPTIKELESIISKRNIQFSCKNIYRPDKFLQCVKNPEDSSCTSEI
Description: as §1, §2, §3, §4, §5, §6, §7, §8

SMILES | pIC50 [1] | pIC50 [2]
O=C(N[C@H]1CC[C@@H](OC2CC(F)(F)C2)CC1)c1cc(F)c2c(c1)-c1cncn1CCO2 [Compound 167A, N-((1s,4s)-4-(3,3-Difluorocyclobutoxy)cyclohexyl)-8-fluoro-5,6-dihydrobenzo[f]imidazo[1,5-d][1,4]oxazepine-10-carboxamide] | 7.00 to 8.00 | 6.00 to 7.00
CC1(C)Cn2cncc2-c2cc(C(=O)N[C@@H]3CCCOC3)ccc2O1 [Compound 38A, (R)-6,6-Dimethyl-N-(tetrahydro-2H-pyran-3-yl)-5,6-dihydrobenzo[f]imidazo[1,5-d][1,4]oxazepine-10-carboxamide] | 7.00 to 8.00 | < 6.00
O=C(NC1CCC1(F)F)c1cc(F)c2c(c1)-c1cncn1CCO2 (stereo not drawn) [Compound 140A, N-(2,2-Difluorocyclobutyl)-8-fluoro-5,6-dihydrobenzo[f]imidazo[1,5-d][1,4]oxazepine-10-carboxamide] | > 9.00 | > 7.52
O=C(NC1CC(F)(F)C1)c1cc(F)c2c(c1)-c1cncn1CCO2 [Compound 135A, N-(3,3-Difluorocyclobutyl)-8-fluoro-5,6-dihydrobenzo[f]imidazo[1,5-d][1,4]oxazepine-10-carboxamide] | > 9.00 | > 7.52
CCC1CCC(NC(=O)c2ccc3c(c2)-c2cncn2CCO3)CC1 (stereo not drawn) [Compound 125A, N-(4-Ethylcyclohexyl)-5,6-dihydrobenzo[f]imidazo[1,5-d][1,4]oxazepine-10-carboxamide] | 8.00 to 9.00 | > 7.52
COCCO[C@H]1CC[C@H](NC(=O)c2cc(C)c3c(c2)-c2cncn2CCO3)CC1 [Compound 53A, N-((1r,4r)-4-(2-Methoxyethoxy)cyclohexyl)-8-methyl-5,6-dihydrobenzo[f]imidazo[1,5-d][1,4]oxazepine-10-carboxamide] | > 9.00 | > 7.52
COCC1COc2ncc(NC(=O)c3ccc4c(c3)-c3cncn3CCO4)cc2O1 (stereo not drawn) [Compound 145A, N-(2-(Methoxymethyl)-2,3-dihydro-[1,4]dioxino[2,3-b]pyridin-7-yl)-5,6-dihydrobenzo[f]imidazo[1,5-d][1,4]oxazepine-10-carboxamide] | 8.00 to 9.00 | > 7.52
COCCO[C@H]1CC[C@H](NC(=O)c2cc3c(c(C4CC4)c2)OCCn2cncc2-3)CC1 [Compound 50A, 8-Cyclopropyl-N-((1r,4r)-4-(2-methoxyethoxy)cyclohexyl)-5,6-dihydrobenzo[f]imidazo[1,5-d][1,4]oxazepine-10-carboxamide] | 8.00 to 9.00 | 7.00 to 7.52
CS(=O)(=O)CCN[C@H]1CC[C@H](NC(=O)c2ccc3c(c2)-c2cncn2CCO3)CC1 [Compound 106A, N-((1r,4r)-4-((2-(Methylsulfonyl)ethyl)amino)cyclohexyl)-5,6-dihydrobenzo[f]imidazo[1,5-d][1,4]oxazepine-10-carboxamide] | 8.00 to 9.00 | 7.00 to 7.52
O=C(N[C@H]1CC[C@@H](OCCCF)CC1)c1ccc2c(c1)-c1cncn1CCO2 [Compound 79A, N-((1s,4s)-4-(3-Fluoropropoxy)cyclohexyl)-5,6-dihydrobenzo[f]imidazo[1,5-d][1,4]oxazepine-10-carboxamide] | 7.00 to 8.00 | 6.00 to 7.00
O=C(N[C@H]1CC[C@H](O[C@H]2C[C@@H](F)C2)CC1)c1ccc2c(c1)-c1cncn1CCO2 [Compound 147A, N-((1r,4r)-4-((1s,3s)-3-Fluorocyclobutoxy)cyclohexyl)-5,6-dihydrobenzo[f]imidazo[1,5-d][1,4]oxazepine-10-carboxamide] | 8.00 to 9.00 | > 7.52
CS(=O)(=O)c1cncc(NC(=O)c2ccc3c(c2)-c2cncn2CCO3)c1 [Compound 22A, N-(5-(Methylsulfonyl)pyridin-3-yl)-5,6-dihydrobenzo[f]imidazo[1,5-d][1,4]oxazepine-10-carboxamide] | 8.00 to 9.00 | > 7.52
O=C(N[C@@H]1CCCOC1)c1ccc2c(c1)-c1cncn1CCO2 [Compound 1A, (R)—N-(Tetrahydro-2H-pyran-3-yl)-5,6-dihydrobenzo[f]imidazo[1,5-d][1,4]oxazepine-10-carboxamide] | > 9.00 | > 7.52
CN(C)c1nc2ccc(C(=O)N[C@@H]3CCCOC3)cc2n2cncc12 [Compound 35A, (R)-4-(Dimethylamino)-N-(tetrahydro-2H-pyran-3-yl)imidazo[1,5-a]quinoxaline-8-carboxamide] | < 7.00 | < 6.00
COCCO[C@H]1CC[C@H](NC(=O)c2cc3c(c(F)c2F)OCCn2cncc2-3)CC1 [Compound 95A, 8,9-Difluoro-N-((1r,4r)-4-(2-methoxyethoxy)cyclohexyl)-5,6-dihydrobenzo[f]imidazo[1,5-d][1,4]oxazepine-10-carboxamide] | 8.00 to 9.00 | > 7.52
O=C(Nc1cnc2scnc2c1)c1ccc2c(c1)-c1cncn1CCO2 [Compound 40A, N-(Thiazolo[5,4-b]pyridin-6-yl)-5,6-dihydrobenzo[f]imidazo[1,5-d][1,4]oxazepine-10-carboxamide] | 8.00 to 9.00 | > 7.52
CC(O)C1CCC(NC(=O)c2ccc3c(c2)-c2cncn2CCO3)CC1 (stereo not drawn) [Compound 126A, N-(4-(1-Hydroxyethyl)cyclohexyl)-5,6-dihydrobenzo[f]imidazo[1,5-d][1,4]oxazepine-10-carboxamide] | 8.00 to 9.00 | 7.00 to 7.52
O=C(N[C@@H]1CCS(=O)(=O)C1)c1cc(F)c2c(c1)-c1cncn1CCO2 [Compound 132A, (R)—N-(1,1-Dioxidotetrahydrothiophen-3-yl)-8-fluoro-5,6-dihydrobenzo[f]imidazo[1,5-d][1,4]oxazepine-10-carboxamide] | 8.00 to 9.00 | > 7.52
O=C(N[C@@H]1CCCOC1)c1ccc2c(c1)-c1cncn1CCCO2 [Compound 26A, (R)—N-(Tetrahydro-2H-pyran-3-yl)-6,7-dihydro-5H-benzo[b]imidazo[5,1-d][1,5]oxazocine-11-carboxamide] | 7.00 to 8.00 | 6.00 to 7.00
C[C@@H]1CCCC[C@@H]1NC(=O)c1cc(F)c2c(c1)-c1cncn1CCO2 (relative stereo) [Compound 175A, 8-Fluoro-N-(cis-2-methylcyclohexyl)-5,6-dihydrobenzo[f]imidazo[1,5-d][1,4]oxazepine-10-carboxamide] | 8.00 to 9.00 | > 7.52
COCCO[C@H]1CC[C@H](NC(=O)c2ccc3c(c2)-c2cncn2CCO3)CC1 [Compound 3A, N-((1r,4r)-4-(2-Methoxyethoxy)cyclohexyl)-5,6-dihydrobenzo[f]imidazo[1,5-d][1,4]oxazepine-10-carboxamide] | 8.00 to 9.00 | > 7.52
O=C(NC1CCC1(F)F)c1ccc2c(c1)-c1cncn1CCO2 (stereo not drawn) [Compound 139A, N-(2,2-Difluorocyclobutyl)-5,6-dihydrobenzo[f]imidazo[1,5-d][1,4]oxazepine-10-carboxamide] | > 9.00 | > 7.52
CS(=O)(=O)N1Cc2ccc(NC(=O)c3ccc4c(c3)-c3cncn3CCO4)cc2C1 [Compound 25A, N-(2-(Methylsulfonyl)isoindolin-5-yl)-5,6-dihydrobenzo[f]imidazo[1,5-d][1,4]oxazepine-10-carboxamide] | 8.00 to 9.00 | > 7.52
COCCS(=O)(=O)N[C@H]1CC[C@H](NC(=O)c2ccc3c(c2)-c2cncn2CCO3)CC1 [Compound 29A, N-((1r,4r)-4-((2-Methoxyethyl)sulfonamido)cyclohexyl)-5,6-dihydrobenzo[f]imidazo[1,5-d][1,4]oxazepine-10-carboxamide] | 8.00 to 9.00 | > 7.52

— patent publication US20260138990A1, “TRICYCLIC FUSED IMIDAZOLE COMPOUNDS AS CD38 MODULATORS AND USES THEREOF” (AEOVIAN PHARMACEUTICALS, INC., priority 2023, published 2026)
